Laboratory results from ChEMBL document CHEMBL5055619, “Tetrahydrofuran-Based Transient Receptor Potential Ankyrin 1 (TRPA1) Antagonists: Ligand-Based Discovery, Activity in a Rodent Asthma Model, and Mechanism-of-Action via Cryogenic Electron Microscopy” (J Med Chem, 2021).
Converted amounts (≈) assume the structure as drawn.

How the values were obtained:
[1] = Antagonist activity at rat TRPA1 expressed in CHO cells assessed as cinnamaldehyde-induced calcium flux measured after 90 mins by FLIPR assay; format: cell-based; conditions: 1.5 h
[2] = Antagonist activity at human TRPA1 expressed in CHO cells assessed as cinnamaldehyde-induced calcium flux measured after 90 mins by FLIPR assay; format: cell-based; conditions: 1.5 h
[3] = Lipophilicity, logD of compound; format: physicochemical; conditions: octanol/water
[4] = Protein binding in human plasma; format: ADME, cell-free; conditions: read-out: PPB (converted)
[5] = Protein binding in rat plasma; format: ADME, cell-free; conditions: read-out: PPB (converted)
[6] = Half life in rat at 1 mg/kg; format: ADME, organism-based; conditions: in vivo
Rattus norvegicus = organism: Rattus norvegicus; assay: Antinociceptive activity against AITC-induced rat pain model assessed as nocifensive behaviour by measuring unbound concentration; format: functional, organism-based
[7] = Unbound Volume of distribution at steady state in rat at 1 mg/kg; format: ADME, organism-based; conditions: in vivo
[8] = Volume of distribution at steady stare in rat at 1 mg/kg; format: ADME, organism-based; conditions: in vivo, read-out: Vdss
[9] = Clearance in rat at 1 mg/kg; format: ADME, organism-based; conditions: in vivo
[10] = Apparent permeability across apical to basolateral side in MDCK cells; format: ADME, cell-based, Canis lupus familiaris; conditions: dog, read-out: permeability
[11] = Kinetic solubility of the compound; format: physicochemical; conditions: for solubility kinetic: read-out: Kinetic_solubility
[12] = Oral bioavailability in rat at 1 mg/kg; format: ADME, organism-based; conditions: in vivo
[13] = Metabolic stability in rat hepatocytes assessed as clearance; format: ADME, cell-based, Hepatocyte
[14] = biological target: Transient receptor potential cation channel subfamily A member 1 (Rattus norvegicus) (UniProt Q6RI86); assay: In vivo antagonist activity at TRPA1 in AITC-induced rat pain model assessed as nocifensive behaviour at 0.86 ratio of free plasma concentration to IC50 for rat […]; format: functional, organism-based; conditions: concentration not given here
Transient receptor potential cation channel subfamily A member 1 (Rattus norvegicus), sequence (Q6RI86 whole entry): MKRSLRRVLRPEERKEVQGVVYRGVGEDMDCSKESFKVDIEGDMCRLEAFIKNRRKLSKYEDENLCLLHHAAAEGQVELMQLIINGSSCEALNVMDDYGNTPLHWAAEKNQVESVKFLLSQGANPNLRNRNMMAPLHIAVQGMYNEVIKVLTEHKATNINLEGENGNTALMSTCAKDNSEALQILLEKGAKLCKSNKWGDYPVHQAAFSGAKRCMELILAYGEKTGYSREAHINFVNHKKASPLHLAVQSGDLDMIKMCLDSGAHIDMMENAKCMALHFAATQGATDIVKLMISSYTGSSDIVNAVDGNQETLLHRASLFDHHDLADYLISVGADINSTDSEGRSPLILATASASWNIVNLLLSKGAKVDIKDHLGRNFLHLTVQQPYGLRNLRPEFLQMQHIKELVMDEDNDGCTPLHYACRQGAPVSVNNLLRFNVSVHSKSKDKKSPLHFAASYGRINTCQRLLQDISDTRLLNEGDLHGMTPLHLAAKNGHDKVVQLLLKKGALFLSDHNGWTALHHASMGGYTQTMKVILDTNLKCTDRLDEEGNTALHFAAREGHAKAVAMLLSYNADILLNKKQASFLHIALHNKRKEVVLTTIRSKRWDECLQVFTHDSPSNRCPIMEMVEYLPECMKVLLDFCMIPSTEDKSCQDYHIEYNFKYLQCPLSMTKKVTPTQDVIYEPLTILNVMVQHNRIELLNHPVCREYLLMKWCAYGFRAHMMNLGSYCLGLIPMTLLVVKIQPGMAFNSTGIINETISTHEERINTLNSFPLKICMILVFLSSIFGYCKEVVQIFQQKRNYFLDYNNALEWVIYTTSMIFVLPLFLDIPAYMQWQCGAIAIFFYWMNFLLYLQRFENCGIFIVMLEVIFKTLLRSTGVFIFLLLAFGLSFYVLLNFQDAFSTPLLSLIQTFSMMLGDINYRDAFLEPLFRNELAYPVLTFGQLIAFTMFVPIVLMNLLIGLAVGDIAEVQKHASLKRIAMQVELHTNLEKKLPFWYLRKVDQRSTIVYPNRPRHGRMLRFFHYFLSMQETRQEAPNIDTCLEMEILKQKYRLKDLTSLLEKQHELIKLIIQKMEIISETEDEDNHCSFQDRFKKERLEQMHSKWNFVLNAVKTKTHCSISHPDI

[15] = biological target: Transient receptor potential cation channel subfamily A member 1 (Rattus norvegicus) (UniProt Q6RI86); assay: In vivo antagonist activity at TRPA1 in AITC-induced rat pain model assessed as nocifensive behaviour at 2.94 ratio of free plasma concentration to IC50 for rat […]; format: functional, organism-based; conditions: concentration not given here
[16] = biological target: Transient receptor potential cation channel subfamily A member 1 (Rattus norvegicus) (UniProt Q6RI86); assay: In vivo antagonist activity at TRPA1 in AITC-induced rat pain model assessed as nocifensive behaviour at 12.67 ratio of free plasma concentration to IC50 for rat […]; format: functional, organism-based; conditions: concentration not given here
[17] = biological target: Transient receptor potential cation channel subfamily A member 1 (Rattus norvegicus) (UniProt Q6RI86); assay: In vivo antagonist activity at TRPA1 in AITC-induced rat pain model assessed as nocifensive behaviour at 43.69 ratio of free plasma concentration to IC50 for rat […]; format: functional, organism-based; conditions: concentration not given here
[18] = Metabolic stability in human liver microsomes assessed as clearance by LC/MS-MS analysis; format: ADME, Microsome
[19] = Metabolic stability in rat liver microsomes assessed as clearance by LC/MS-MS analysis; format: ADME, Microsome
[20] = biological target: Transient receptor potential cation channel subfamily A member 1 (Rattus norvegicus) (UniProt Q6RI86); assay: In vivo antagonist activity at TRPA1 in AITC-induced rat pain model assessed as nocifensive behaviour at 0.76 ratio of free plasma concentration to IC50 for rat […]; format: functional, organism-based; conditions: concentration not given here
[21] = biological target: Transient receptor potential cation channel subfamily A member 1 (Rattus norvegicus) (UniProt Q6RI86); assay: In vivo antagonist activity at TRPA1 in AITC-induced rat pain model assessed as nocifensive behaviour at 8 ratio of free plasma concentration to IC50 for rat […]; format: functional, organism-based
[22] = biological target: Transient receptor potential cation channel subfamily A member 1 (Rattus norvegicus) (UniProt Q6RI86); assay: In vivo antagonist activity at TRPA1 in AITC-induced rat pain model assessed as nocifensive behaviour at 21.57 ratio of free plasma concentration to IC50 for rat […]; format: functional, organism-based; conditions: concentration not given here
[23] = biological target: Transient receptor potential cation channel subfamily A member 1 (Rattus norvegicus) (UniProt Q6RI86); assay: In vivo antagonist activity at TRPA1 in AITC-induced rat pain model assessed as nocifensive behaviour at 44.77 ratio of free plasma concentration to IC50 for rat […]; format: functional, organism-based; conditions: concentration not given here
[24] = biological target: Transient receptor potential cation channel subfamily A member 1 (Rattus norvegicus) (UniProt Q6RI86); assay: In vivo antagonist activity at TRPA1 in AITC-induced rat pain model assessed as nocifensive behaviour at 0.36 ratio of free plasma concentration to IC50 for rat […]; format: functional, organism-based; conditions: concentration not given here
[25] = biological target: Transient receptor potential cation channel subfamily A member 1 (Rattus norvegicus) (UniProt Q6RI86); assay: In vivo antagonist activity at TRPA1 in AITC-induced rat pain model assessed as nocifensive behaviour at 1.21 ratio of free plasma concentration to IC50 for rat […]; format: functional, organism-based; conditions: concentration not given here
[26] = biological target: Transient receptor potential cation channel subfamily A member 1 (Rattus norvegicus) (UniProt Q6RI86); assay: In vivo antagonist activity at TRPA1 in AITC-induced rat pain model assessed as nocifensive behaviour at 2.97 ratio of free plasma concentration to IC50 for rat […]; format: functional, organism-based; conditions: concentration not given here
[27] = biological target: Transient receptor potential cation channel subfamily A member 1 (Rattus norvegicus) (UniProt Q6RI86); assay: In vivo antagonist activity at TRPA1 in AITC-induced rat pain model assessed as nocifensive behaviour at 4.45 ratio of free plasma concentration to IC50 for rat […]; format: functional, organism-based; conditions: concentration not given here

IC50 [1] [nM]	IC50 [2] [nM]	logD [3]	fraction unbound [4]	fraction unbound [5]	half-life [6] [min]	EC50 (Rattus norvegicus) [nM]	Vduss [7] [L/kg]	Vd [8] [L/kg]	clearance [9] [mL/min/kg]	Papp A→B [10] [×10⁻⁶ cm/s]	solubility kinetic [11] [µM]	bioavailability [12] [%]	CLhep predicted [13] [mL/min/kg]	Structure (SMILES)	also measured
18	25	1.8	0.07	0.087	108	220	20.7	1.8	12	17.3	97 (≈ 41.2 µg/mL)	39	36	Cn1cnc2ncn(Cc3nc([C@H]4[C@@H]5CN(c6cc(Cl)ccn6)C[C@@H]54)no3)c(=O)c21	inhibition [14]: 59%; inhibition [15]: 64%; inhibition [16]: 48%; inhibition [17]: 94%
18	20	1.2	0.334		84	390	3.14	1.3	17	9	120 (≈ 48.6 µg/mL)	53	24	Cn1cnc2ncn(Cc3nn(C[C@H](F)c4ccc(Cl)cc4)c(=O)o3)c(=O)c21	CLhep predicted [18]: 5.6 mL/min/kg; CLhep predicted [19]: 28 mL/min/kg; inhibition [20]: 20%; inhibition [21]: 20%; inhibition [22]: 37%; inhibition [23]: 100%
7.9	2.9	2.9	0.011	0.018	384	7.9	128	2.3	4.5	15.5		20	35	Cn1cnc2ncn(Cc3nc([C@H]4[C@@H]5CN(c6cccc(Cl)c6)C[C@@H]54)no3)c(=O)c21	Kinetic_solubility [11]: 97 µM; inhibition [24]: 12%; inhibition [25]: 64%; inhibition [26]: 99%; inhibition [27]: 99%
